In US20110059948A1, “QUINOLINE, NAPHTHALENE AND CONFORMATIONALLY CONSTRAINED QUINOLINE OR NAPHTHALENE DERIVATIVES AS ANTI-MYCOBACTERIAL AGENTS” (priority 2008, published 2011):
In brackets after ≈: the same amount, converted by molar mass. Where two headings read alike, the source gives them in different places.

Experiments:
[1] = test system: M. avium-intracellular Complex; test: In vitro agar dilution assay (MIC); assay type: cell-based, Mycobacterium avium-intracellular complex; settings: for MIC M. avium-intracellulare Complex (n = 10): n = 10 strains tested
M. fortuitum = test: In vitro agar dilution assay (MIC); assay type: cell-based, Mycobacterium fortuitum; settings: n = 2 strains tested
[2] = test system: M. Tuberculosis strain (H37RV); test: In vitro agar dilution assay (MIC, NCCLS-M24-T2); assay type: cell-based, Mycobacterium tuberculosis; settings: for MIC: Mycobacterium tuberculosis, ATCC 27294 / H37Rv, read-out: MIC against M. tuberculosis (H37RV ATCC27294)
M. kansasii = test: In vitro agar dilution assay (MIC); assay type: cell-based, Mycobacterium kansasii; settings: n = 2 strains tested
[3] = test system: clinical isolates generally susceptible to common tubercular agents; test: microbe, parasite or virus in culture; assay type: cell-based, Mycobacterium tuberculosis; settings: for MIC M. tuberculosis Sensitive (n = 20): clinical isolates, n = 20 strains tested
[4] = test system: M. tuberculosis H37RV ATCC 27294; test: In vitro growth inhibition assay, BACTEC 460 TB system; assay type: cell-based, Mycobacterium tuberculosis
[5] = test system: M. Tuberculosis strain (H37RV); settings: Janssen WO2004/011436; cited from earlier work
[6] = agar dilution, Middlebrook 7H10

## COc1nc2ccc(Br)cc2c2c1C(C)(OCC(O)Cn1ccc(-c3ccc(C(F)(F)F)cc3)n1)c1ccccc1-2 (stereo not drawn)
other
  melting point: 65 to 67 °C

## CC(c1cc(F)ccc1Oc1nc2ccc(-n3cc(-c4ccccc4)nn3)cc2cc1Cc1ccccc1)n1ccnc1 (stereo not drawn)
other
  melting point: 118 to 120 °C

## CC(O)c1cc(F)ccc1Oc1nc2ccc(NC(=O)Nc3cccc([N+](=O)[O-])c3)cc2cc1Cc1ccccc1 (stereo not drawn)
other
  melting point: 217 to 219 °C

## COc1nc2ccc(Br)cc2cc1C(c1ccccc1)n1ccnc1 (racemic)
other
  melting point: 161 to 162 °C

## COc1nc2ccc(Br)cc2cc1C(c1ccccc1)n1cccn1 (racemic)
other
  melting point: 142 to 144 °C

## COc1nc2ccc(Br)cc2cc1C(Nc1ccc2oc(=O)ccc2c1)c1ccccc1 (racemic)
other
  melting point: 88 to 89 °C

## COC(=O)C(C(=O)N1CCOCC1)C(c1ccccc1)c1cc2cc(Br)ccc2nc1OC (stereo not drawn) [Example 1] [listing 1 of 2 here]
other
  melting point: 206 to 208 °C

## COC(=O)C(C(=O)N1CCOCC1)C(c1ccccc1)c1cc2cc(Br)ccc2nc1OC (stereo not drawn) [Example 1] [listing 2 of 2 here]
other
  melting point: 187.5 to 189.5 °C

## CC(c1cc(F)ccc1Oc1nc2ccc(-n3cc(-c4ccccc4)nn3)cc2cc1Cc1ccccc1)n1ccnc1 (stereo not drawn) [Example 23]
[1]
  MIC M. avium-intracellulare Complex (n = 10): <4.0 µg/mL
M. fortuitum
  MIC M. fortuitum (n = 2): <4.0 µg/mL
[2]; [6]
  MIC against M. tuberculosis (H37RV ATCC27294): <3.125 µg/mL
M. kansasii
  MIC M. kansasii (n = 2): <4.0 µg/mL
[3]
  MIC M. tuberculosis Sensitive (n = 20): <3.125 µg/mL
[4]
  mark “a” at the serial number (99% inhibition at <4 μg/ml), Tables 2-4: 23a (Compounds marked with “a” have shown 99% inhibition at <4 μg/ml)

## COc1cccc(NC(=O)Nc2ccc3nc(Oc4ccc(F)cc4C(C)O)c(Cc4ccccc4)cc3c2)c1 (stereo not drawn) [Example 26]
[1]
  MIC M. avium-intracellulare Complex (n = 10): <4.0 µg/mL
M. fortuitum
  MIC M. fortuitum (n = 2): <4.0 µg/mL
[2]; [6]
  MIC against M. tuberculosis (H37RV ATCC27294): <3.125 µg/mL
M. kansasii
  MIC M. kansasii (n = 2): <4.0 µg/mL
[3]
  MIC M. tuberculosis Sensitive (n = 20): <3.125 µg/mL
[4]
  mark “a” at the serial number (99% inhibition at <4 μg/ml), Tables 2-4: 26a (Compounds marked with “a” have shown 99% inhibition at <4 μg/ml)

## CC(O)c1cc(F)ccc1Oc1nc2ccc(NC(=O)Nc3cccc([N+](=O)[O-])c3)cc2cc1Cc1ccccc1 (stereo not drawn) [Example 31]
[1]
  MIC M. avium-intracellulare Complex (n = 10): >8.0 µg/mL
M. fortuitum
  MIC M. fortuitum (n = 2): >8.0 µg/mL
[2]; [6]
  MIC against M. tuberculosis (H37RV ATCC27294): <3.125 µg/mL
M. kansasii
  MIC M. kansasii (n = 2): >8.0 µg/mL
[3]
  MIC M. tuberculosis Sensitive (n = 20): <6.25 µg/mL
[4]
  mark “a” at the serial number (99% inhibition at <4 μg/ml), Tables 2-4: 31a (Compounds marked with “a” have shown 99% inhibition at <4 μg/ml)

## ON=C1c2ccccc2-c2c1c(N1CCN(c3ccccn3)CC1)nc1ccc(Br)cc21 [Example 134]
[1]
  MIC M. avium-intracellulare Complex (n = 10): <6.25 µg/mL
M. fortuitum
  MIC M. fortuitum (n = 2): >8.0 µg/mL
[2]; [6]
  MIC against M. tuberculosis (H37RV ATCC27294): <6.25 µg/mL
M. kansasii
  MIC M. kansasii (n = 2): >8.0 µg/mL
[3]
  MIC M. tuberculosis Sensitive (n = 20): <6.25 µg/mL
[4]
  mark “a” at the serial number (99% inhibition at <4 μg/ml), Tables 5A-N, 6-10: 134a (Compounds marked with “a” have shown 99% inhibition at <4 μg/ml)

## COc1nc2ccc(Br)cc2cc1C(c1ccccc1)[C@@](O)(CCN(C)C)c1cccc2ccccc12 (stereo partly drawn) [Example R207910]
[5]
  MIC value against the M. Tuberculosis strain (H37RV): 0.07 µg/mL (≈ 0.126 µM)

## NNC(=O)c1ccncc1 [Isoniazid, reference compound]
[1]; Mycobacterium, read-out: MIC M. avium-intracellulare Complex (n = 10)
  MIC: > 16 µg/mL
M. fortuitum; Mycolicibacterium fortuitum, read-out: MIC M. fortuitum (n = 2)
  MIC: > 16 µg/mL
[2]; [6]
  MIC: 0.25 µg/mL (≈ 1.82 µM)
M. kansasii; Mycobacterium kansasii, read-out: MIC M. kansasii (n = 2)
  MIC: > 16 µg/mL
[3]; Mycobacterium tuberculosis, read-out: MIC M. tuberculosis Sensitive (n = 20)
  MIC: 0.25 µg/mL (≈ 1.82 µM)

## CO[C@H]1/C=C/O[C@@]2(C)Oc3c(C)c(O)c4c(O)c(c(/C=N/N5CCN(C)CC5)c(O)c4c3C2=O)NC(=O)/C(C)=C\C=C\[C@H](C)[C@H](O)[C@@H](C)[C@@H](O)[C@@H](C)[C@H](OC(C)=O)[C@@H]1C [Refampin, Rifampicin, reference compound]
[2]
  MIC: 0.25 µg/mL (≈ 0.304 µM)
